Activity calls are given as the source filed them. The rule behind the calls is not given here.
Key:
[1] = molecular target: T1, Acetylcholinesterase (Homo sapiens, UniProt P22303); test: Inhibition of human recombinant AChE using acetylthiocholine iodide as substrate after 20 mins by Ellmans method
[2] = molecular target: T1, Acetylcholinesterase; test: Inhibition of human recombinant AChE using acetylthiocholine iodide as substrate after 20 mins by Ellmans method relative to dimebon
[3] = molecular target: T2, Amyloid-beta precursor protein (Homo sapiens, UniProt P05067); test: Inhibition of self-mediated amyloid beta (1 to 42) aggregation (unknown origin) at 10 uM after 24 hrs by thioflavin T fluorometric assay
T2 sequence (P05067 whole entry): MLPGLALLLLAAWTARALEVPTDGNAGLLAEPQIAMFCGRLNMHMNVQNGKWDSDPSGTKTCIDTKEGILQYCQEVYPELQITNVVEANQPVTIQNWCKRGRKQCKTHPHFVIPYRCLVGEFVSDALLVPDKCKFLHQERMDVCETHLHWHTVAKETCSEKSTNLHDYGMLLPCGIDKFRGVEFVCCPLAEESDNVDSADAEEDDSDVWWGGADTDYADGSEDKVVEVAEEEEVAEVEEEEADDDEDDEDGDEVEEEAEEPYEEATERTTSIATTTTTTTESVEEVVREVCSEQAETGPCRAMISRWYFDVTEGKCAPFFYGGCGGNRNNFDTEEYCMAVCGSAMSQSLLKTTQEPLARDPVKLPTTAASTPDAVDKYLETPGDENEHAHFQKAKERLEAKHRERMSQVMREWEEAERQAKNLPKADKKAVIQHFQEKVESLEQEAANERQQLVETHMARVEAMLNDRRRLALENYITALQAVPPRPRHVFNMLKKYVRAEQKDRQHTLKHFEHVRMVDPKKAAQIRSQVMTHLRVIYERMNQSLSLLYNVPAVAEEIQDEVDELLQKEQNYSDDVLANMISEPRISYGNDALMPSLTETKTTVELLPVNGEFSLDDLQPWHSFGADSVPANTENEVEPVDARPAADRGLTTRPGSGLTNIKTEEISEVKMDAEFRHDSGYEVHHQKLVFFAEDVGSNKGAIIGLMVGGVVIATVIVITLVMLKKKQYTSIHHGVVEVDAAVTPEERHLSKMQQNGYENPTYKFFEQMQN

[4] = molecular target: Glutamate NMDA receptor; GRIN1/GRIN2A (Homo sapiens, UniProt Q05586+Q12879); test: Inhibition of NMDA receptor (unknown origin) at 100 mV; type: protein-complex assay
Chain of Glutamate NMDA receptor; GRIN1/GRIN2A (Q12879 whole entry, other chains not shown): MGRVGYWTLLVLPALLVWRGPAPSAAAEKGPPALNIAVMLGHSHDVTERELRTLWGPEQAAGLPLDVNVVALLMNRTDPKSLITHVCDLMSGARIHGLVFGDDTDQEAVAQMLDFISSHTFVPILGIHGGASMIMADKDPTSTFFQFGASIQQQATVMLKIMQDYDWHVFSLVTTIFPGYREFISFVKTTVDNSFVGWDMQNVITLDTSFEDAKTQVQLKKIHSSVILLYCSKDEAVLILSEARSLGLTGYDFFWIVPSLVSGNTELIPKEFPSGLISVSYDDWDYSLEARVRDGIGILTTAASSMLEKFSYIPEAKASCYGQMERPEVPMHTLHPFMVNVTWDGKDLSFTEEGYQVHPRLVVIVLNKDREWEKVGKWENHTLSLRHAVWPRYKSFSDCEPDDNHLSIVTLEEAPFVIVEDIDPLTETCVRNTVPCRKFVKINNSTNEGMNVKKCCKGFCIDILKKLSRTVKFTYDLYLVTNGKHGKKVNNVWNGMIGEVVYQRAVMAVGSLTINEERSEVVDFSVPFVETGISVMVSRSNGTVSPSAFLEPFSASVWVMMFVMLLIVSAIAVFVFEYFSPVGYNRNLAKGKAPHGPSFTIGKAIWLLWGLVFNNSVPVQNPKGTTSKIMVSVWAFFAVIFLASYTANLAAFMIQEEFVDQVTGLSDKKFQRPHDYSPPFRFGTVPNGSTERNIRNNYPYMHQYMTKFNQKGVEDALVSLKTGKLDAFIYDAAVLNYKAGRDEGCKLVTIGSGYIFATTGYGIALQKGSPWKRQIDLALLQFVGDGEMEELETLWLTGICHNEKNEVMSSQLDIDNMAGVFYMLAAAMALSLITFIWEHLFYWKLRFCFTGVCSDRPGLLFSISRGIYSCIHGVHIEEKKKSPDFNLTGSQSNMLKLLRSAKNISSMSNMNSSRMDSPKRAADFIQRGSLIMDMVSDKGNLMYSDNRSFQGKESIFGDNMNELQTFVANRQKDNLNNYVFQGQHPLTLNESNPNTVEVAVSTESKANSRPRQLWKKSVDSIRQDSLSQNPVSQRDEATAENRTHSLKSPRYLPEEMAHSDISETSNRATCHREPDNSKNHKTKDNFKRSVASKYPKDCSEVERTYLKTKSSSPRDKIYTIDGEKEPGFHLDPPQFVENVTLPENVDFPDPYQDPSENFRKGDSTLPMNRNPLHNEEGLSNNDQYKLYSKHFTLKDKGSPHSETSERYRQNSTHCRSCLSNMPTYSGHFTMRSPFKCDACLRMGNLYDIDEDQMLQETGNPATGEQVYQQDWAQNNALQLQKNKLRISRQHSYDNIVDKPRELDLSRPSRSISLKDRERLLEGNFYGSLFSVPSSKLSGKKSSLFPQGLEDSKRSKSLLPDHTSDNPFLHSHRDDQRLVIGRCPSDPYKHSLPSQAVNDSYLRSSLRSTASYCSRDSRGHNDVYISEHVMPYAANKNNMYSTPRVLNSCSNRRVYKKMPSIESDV

[5] = tested on: Trypanosoma brucei rhodesiense; test: Antitrypanosomal activity against bloodstream forms of Trypanosoma brucei rhodesiense; type: functional; settings: read-out: ED50 (the source's name)
[6] = Selectivity index, ratio of ED50 for mammalian cells to ED50 for Trypanosoma brucei rhodesiense; type: toxicity; settings: read-out: Ratio ED50
[7] = molecular target: T2, Amyloid-beta precursor protein; test: Inhibition of self-mediated amyloid beta (1 to 42) aggregation (unknown origin) after 24 hrs by thioflavin T fluorometric assay
[8] = tested on: Trypanosoma brucei; test: Antitrypanosomal activity against Trypanosoma brucei; type: functional, organism-based
[9] = tested on: L6; test: Cytotoxicity against rat L6 cells; type: cell-based
[10] = Inhibition of parasite-specific trypanothione reductase
[11] = Inhibition of Trypanosoma brucei GAPDH

T1 sequence (P22303 whole entry): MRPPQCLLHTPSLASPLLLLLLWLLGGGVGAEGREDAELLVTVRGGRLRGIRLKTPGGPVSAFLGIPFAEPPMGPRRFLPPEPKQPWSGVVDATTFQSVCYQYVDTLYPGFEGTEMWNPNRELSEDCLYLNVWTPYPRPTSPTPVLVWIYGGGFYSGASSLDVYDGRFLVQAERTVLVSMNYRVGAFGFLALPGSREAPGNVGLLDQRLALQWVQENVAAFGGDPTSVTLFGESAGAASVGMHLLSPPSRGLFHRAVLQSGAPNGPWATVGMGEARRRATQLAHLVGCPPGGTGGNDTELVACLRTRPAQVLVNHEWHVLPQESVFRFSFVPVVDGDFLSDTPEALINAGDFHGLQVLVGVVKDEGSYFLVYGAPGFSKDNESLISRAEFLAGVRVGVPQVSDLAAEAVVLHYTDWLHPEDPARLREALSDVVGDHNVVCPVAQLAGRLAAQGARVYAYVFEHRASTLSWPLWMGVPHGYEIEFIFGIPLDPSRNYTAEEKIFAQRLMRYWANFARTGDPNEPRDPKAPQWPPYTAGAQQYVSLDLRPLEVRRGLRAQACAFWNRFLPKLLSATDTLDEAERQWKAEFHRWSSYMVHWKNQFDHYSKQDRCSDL

Structure (SMILES)	IC50 [1] [nM]	inhibition [3]	IC50 [4] [nM]	further results
Cc1ccc2[nH]c3c(c2c1)CN(CCCCCCCN1CCc2[nH]c4ccc(C)cc4c2C1)CC3	690	35.2%	12600	fold change (FC) [2]: 128
Cc1ccc2c(c1)c1c(n2CCc2ccc(C)nc2)CCN(C)C1 [LATREPIRDINE]	–	inactive	13900	–
Cc1ccc2[nH]c3c(c2c1)CN(CCCCCCN1CCc2[nH]c4ccc(C)cc4c2C1)CC3	190	35.6%	11000	fold change (FC) [2]: 128
O=C1C=C(Oc2ccccc2)C(=O)c2ccccc21	–	–	–	EC50 [5]: 80 nM; selectivity ratio [6]: 74
O=C(Cc1ccccc1Nc1c(Cl)cccc1Cl)NCCCNCCCNC1=CC(=O)C(NCCCNCCCNC(=O)Cc2ccccc2Nc2c(Cl)cccc2Cl)=CC1=O	600	–	–	IC50 [7]: 3110 nM
CN(C)CCCOc1ccc2oc(=O)c(-c3ccc(OC4=CC(=O)c5cc6ccccc6cc5C4=O)cc3)cc2c1	–	–	–	EC50 [8]: 26 nM; Activity [9]: 7.95 µM
CCN(CCCCCCNC1=CC(=O)C(NCCCCCCN(CC)Cc2ccccc2OC)=CC1=O)Cc1ccccc1OC [MEMOQUIN]	15400	–	–	–
CN(C)CCOc1cc2ccc(OC3=CC(=O)c4cc5ccccc5cc4C3=O)cc2oc1=O	–	–	–	Ki [10]: 2700 nM; IC50 [11]: 5400 nM

Reference: ChEMBL document CHEMBL3585239, “Two diseases, one approach: multitarget drug discovery in Alzheimer's and neglected tropical diseases” (Medchemcomm, 2014)
